According to patent US20250145665A1, “MACROCYCLIC PEPTIDES USEFUL AS MODULATORS OF TNF ALPHA” (Bristol-Myers Squibb Company, priority 2023, published 2025):
Starred links: 1 amine or outer side, 2 acyl side, 3 side chain; linkers in the order of their positions; H or OH if unused. Positions of bridges follow the written chain, without caps; N, C: chain ends. Non-standard residues stand in square brackets, D forms with d. Residues, ends and D or L forms follow the SMILES beside them. ξ: configuration not given here. *: point of attachment. Bip(4'-NHCO-C6H4-3-CH2COOH) = N[C@@H](Cc1ccc(-c2ccc(NC(=O)c3cccc(CC(=O)O)c3)cc2)cc1)C(=O)O; Bip(4'-NHCO-C6H4-4-CH2COOH) = N[C@@H](Cc1ccc(-c2ccc(NC(=O)c3ccc(CC(=O)O)cc3)cc2)cc1)C(=O)O; X84 = O=C(Oc1cccc(-c2ccc(C[C@H](N[*:1])C(=O)[*:2])cc2)c1)c1csc(-c2ccncc2)n1; Bip(4'-NH) = O=C([C@H](Cc1ccc(-c2ccc(N[*:3])cc2)cc1)N[*:1])[*:2]; Bip(4'-COOH) = N[C@@H](Cc1ccc(-c2ccc(C(=O)O)cc2)cc1)C(=O)O; Bip(4'-NHAc) = CC(=O)Nc1ccc(-c2ccc(C[C@H](N)C(=O)O)cc2)cc1; X7 = N=C(NCCC[C@@H](N[*:1])C(=O)[*:2])NCc1ccc2occc2c1; Pro(cis-4-Ph) = O=C(O)[C@@H]1C[C@H](c2ccccc2)CN1; Ala(morpholin-4-yl) = N[C@@H](CN1CCOCC1)C(=O)O; Phe(3-CONH2) = NC(=O)c1cccc(C[C@H](N)C(=O)O)c1; Bip = N[C@@H](Cc1ccc(-c2ccccc2)cc1)C(=O)O; Phe(2-Me) = Cc1ccccc1C[C@H](N)C(=O)O; Val(3-OH) = CC(C)(O)[C@H](N)C(=O)O; 2Pal = N[C@@H](Cc1ccccn1)C(=O)O; 3Pal = N[C@@H](Cc1cccnc1)C(=O)O; Tic = O=C(O)[C@@H]1Cc2ccccc2CN1; Cha = N[C@@H](CC1CCCCC1)C(=O)O; X62 = COC(=O)Cc1cccc(C(=O)*)c1; Tle = CC(C)(C)[C@H](N)C(=O)O; ξIle = CC[C@H](C)C(N)C(=O)O; Pip = O=C(O)[C@@H]1CCCCN1; Aze = O=C(O)[C@@H]1CCN1; Sar = CNCC(=O)O

Target: TNFα (Homo sapiens, UniProt P01375)
Sequence (P01375 77-233 limits assumed): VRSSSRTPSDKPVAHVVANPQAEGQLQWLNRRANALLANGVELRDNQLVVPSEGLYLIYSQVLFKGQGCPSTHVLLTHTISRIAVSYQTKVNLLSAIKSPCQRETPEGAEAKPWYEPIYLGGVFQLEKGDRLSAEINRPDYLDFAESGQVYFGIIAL
Assay: TNF-Induced HEK-Blue Assay
Type: cell-based
Details: not given

SMILES | IC50 [nM]
CC[C@H](C)[C@@H]1NC(=O)[C@@H](CCCNC(=N)N)NC(=O)[C@H](CC(=O)O)NC(=O)[C@H](Cc2cnc[nH]2)NC(=O)CN(C)C(=O)[C@H](Cc2ccc(-c3ccc(NC(=O)c4cccc(CC(=O)OC)c4)cc3)cc2)NC(=O)[C@H](Cc2ccc(-c3ccc(C(=O)O)cc3)cc2)NC(=O)[C@H](CC2CCCCC2)NC(=O)CSC[C@@H](C(=O)NCC(N)=O)NC(=O)[C@H](CC(C)C)NC(=O)[C@H](Cc2c[nH]cn2)NC(=O)[C@H](C(C)C)NC(=O)[C@@H]2CCCN2C1=O [Example 503] ({CH2CO}-[Cha][Bip(4'-COOH)][Bip(4'-NH)](X62)[Sar]HD[dR]IPVHLCG-NH2; thioether N-13) | < 50

Same assay, conditions: HEK-Blue-CD40L cells, NF-kB-driven secreted alkaline phosphatase reporter; TNFα 0.5 ng/ml; 18 h; read-out: TNF induced HEK-Blue assay IC50 value

SMILES | IC50 [nM]
CC(=O)Nc1ccc(-c2ccc(C[C@@H]3NC(=O)[C@H](Cc4ccc(-c5ccccc5)cc4)NC(=O)[C@H](C(C)(C)O)NC(=O)CSC[C@@H](C(=O)NCC(N)=O)NC(=O)[C@H](CC(C)C)NC(=O)[C@H](Cc4ccc(O)cc4)NC(=O)[C@H](C(C)C)NC(=O)[C@@H]4CCCN4C(=O)[C@H](Cc4ccc(O)cc4)NC(=O)[C@@H](CCCNC(=N)N)NC(=O)[C@H](CC(=O)O)NC(=O)[C@H](Cc4ccccn4)NC(=O)CN(C)C3=O)cc2)cc1 [Example 178] ({CH2CO}-[Val(3-OH)][Bip][Bip(4'-NHAc)][Sar][2Pal]D[dR]YPVYLCG-NH2; thioether N-13) | < 50
CC(=O)Nc1ccc(-c2ccc(C[C@@H]3NC(=O)[C@H](Cc4ccccc4)NC(=O)CSC[C@@H](C(=O)NCC(N)=O)NC(=O)[C@H](CC(C)C)NC(=O)[C@H](CCCNC(=N)N)NC(=O)[C@H](C(C)C)NC(=O)[C@@H]4CCCN4C(=O)[C@H](C(C)C)NC(=O)[C@H](CCCNC(=N)N)NC(=O)[C@H](CC(=O)O)NC(=O)[C@@H]4CCCN4C(=O)CN(C)C(=O)[C@H](Cc4ccc(-c5ccccc5)cc4)NC3=O)cc2)cc1 [Example 38] ({CH2CO}-F[Bip(4'-NHAc)][Bip][Sar]PDRVPVRLCG-NH2; thioether N-13) | 200 to 2000
CC(C)C[C@@H]1NC(=O)[C@H](CCCNC(=N)N)NC(=O)[C@H](C(C)C)NC(=O)[C@@H]2Cc3ccccc3CN2C(=O)[C@H](C(C)C)NC(=O)[C@H](CCCNC(=N)N)NC(=O)[C@H](CC(=O)O)NC(=O)[C@@H]2CCCN2C(=O)CN(C)C(=O)[C@H](Cc2ccc(-c3ccccc3)cc2)NC(=O)[C@H](Cc2ccc(-c3ccccc3)cc2)NC(=O)[C@H](Cc2ccccc2)NC(=O)CSC[C@@H](C(=O)NCC(N)=O)NC1=O [Example 40] ({CH2CO}-F[Bip][Bip][Sar]PDRV[Tic]VRLCG-NH2; thioether N-13) | 50 to 200
CC(C)C[C@@H]1NC(=O)[C@H](CCCNC(=N)N)NC(=O)[C@H](C(C)C)NC(=O)[C@@H]2CCCN2C(=O)[C@H](C(C)C)NC(=O)[C@H](CCCNC(=N)N)NC(=O)[C@H](CC(=O)O)NC(=O)[C@@H]2CCCN2C(=O)CN(C)C(=O)[C@H](Cc2ccc(-c3ccccc3)cc2)NC(=O)[C@H](Cc2ccc(-c3ccccc3)cc2)NC(=O)[C@H](Cc2cccc(C(N)=O)c2)NC(=O)CSC[C@@H](C(=O)NCC(N)=O)NC1=O [Example 35] ({CH2CO}-[Phe(3-CONH2)][Bip][Bip][Sar]PDRVPVRLCG-NH2; thioether N-13) | 200 to 2000
CC(C)C[C@@H]1NC(=O)[C@H](CCCNC(=N)N)NC(=O)[C@H](C(C)C)NC(=O)[C@@H]2CCCN2C(=O)[C@H](C(C)C)NC(=O)[C@H](CCCNC(=N)N)NC(=O)[C@H](CC(=O)O)NC(=O)[C@@H]2CCCN2C(=O)CN(C)C(=O)[C@H](Cc2ccc(-c3ccccc3)cc2)NC(=O)[C@H](Cc2ccc(-c3ccccc3)cc2)NC(=O)[C@H](Cc2cccnc2)NC(=O)CSC[C@@H](C(=O)NCC(N)=O)NC1=O [Example 29] ({CH2CO}-[3Pal][Bip][Bip][Sar]PDRVPVRLCG-NH2; thioether N-13) | 200 to 2000
CC(C)[C@@H]1NC(=O)[C@H](CCCNC(=N)N)NC(=O)[C@H](C(C)C)NC(=O)[C@@H]2CCCN2C(=O)[C@H](C(C)C)NC(=O)[C@H](CCCNC(=N)N)NC(=O)[C@H](CC(=O)O)NC(=O)[C@@H]2CCCN2C(=O)CN(C)C(=O)[C@H](Cc2ccc(-c3ccc(C(=O)O)cc3)cc2)NC(=O)[C@H](Cc2ccc(-c3ccccc3)cc2)NC(=O)[C@H](CN2CCOCC2)NC(=O)CSC[C@@H](C(=O)NCC(N)=O)NC1=O [Example 90] ({CH2CO}-[Ala(morpholin-4-yl)][Bip][Bip(4'-COOH)][Sar]PDRVPVRVCG-NH2; thioether N-13) | 50 to 200
CC[C@H](C)[C@@H]1NC(=O)[C@@H](CCCNC(=N)N)NC(=O)[C@H](CC(=O)O)NC(=O)[C@@H]2CCCN2C(=O)CN(C)C(=O)[C@H](Cc2ccc(-c3ccc(NC(=O)c4ccc(CC(=O)O)cc4)cc3)cc2)NC(=O)[C@H](Cc2ccc(-c3ccc(C(=O)O)cc3)cc2)NC(=O)[C@H](C(C)(C)C)NC(=O)CSC[C@@H](C(=O)NCC(N)=O)NC(=O)[C@H](CC(C)C)NC(=O)[C@H](Cc2cnc[nH]2)NC(=O)[C@H](C(C)C)NC(=O)[C@@H]2CCCN2C1=O [Example 576] ({CH2CO}-[Tle][Bip(4'-COOH)][Bip(4'-NHCO-C6H4-4-CH2COOH)][Sar]PD[dR]IPVHLCG-NH2; thioether N-13) | 50 to 200
CC[C@H](C)[C@@H]1NC(=O)[C@@H](CCCNC(=N)NCc2ccc3occc3c2)NC(=O)[C@H](CC(=O)O)NC(=O)[C@H](Cc2cnc[nH]2)NC(=O)CN(C)C(=O)[C@H](Cc2ccc(-c3ccc(NC(=O)c4cccc(CC(=O)O)c4)cc3)cc2)NC(=O)[C@H](Cc2ccc(-c3ccccc3)cc2)NC(=O)[C@H](CC2CCCCC2)NC(=O)CSC[C@@H](C(=O)NCC(N)=O)NC(=O)[C@H](CC(C)C)NC(=O)[C@H](Cc2c[nH]cn2)NC(=O)[C@H](C(C)C)NC(=O)[C@@H]2CCCN2C1=O [Example 505] ({CH2CO}-[Cha][Bip][Bip(4'-NHCO-C6H4-3-CH2COOH)][Sar]HD[X7]IPVHLCG-NH2; thioether N-13) | 50 to 200
CC(C)C[C@@H]1NC(=O)[C@H](CCCNC(=N)N)NC(=O)[C@H](C(C)C)NC(=O)[C@@H]2CCCN2C(=O)[C@H](C(C)C)NC(=O)[C@@H](CCCNC(=N)N)NC(=O)[C@H](CC(=O)O)NC(=O)[C@@H]2CCCN2C(=O)CN(C)C(=O)[C@H](Cc2ccc(-c3cccc(OC(=O)c4csc(-c5ccncc5)n4)c3)cc2)NC(=O)[C@H](Cc2ccc(-c3ccccc3)cc2)NC(=O)[C@H](CN2CCOCC2)NC(=O)CSC[C@@H](C(=O)NCC(N)=O)NC1=O [Example 332] ({CH2CO}-[Ala(morpholin-4-yl)][Bip][X84][Sar]PD[dR]VPVRLCG-NH2; thioether N-13) | 200 to 2000
CC(C)C[C@@H]1NC(=O)[C@H](Cc2ccc(O)cc2)NC(=O)[C@H](C(C)C)NC(=O)[C@@H]2CCCN2C(=O)[C@H](C(C)C)NC(=O)[C@H](CCCNC(=N)N)NC(=O)[C@H](CC(=O)O)NC(=O)[C@@H]2C[C@H](c3ccccc3)CN2C(=O)CN(C)C(=O)[C@H](Cc2ccc(-c3ccccc3)cc2)NC(=O)[C@H](Cc2ccc(-c3ccccc3)cc2)NC(=O)[C@H](CN2CCOCC2)NC(=O)CSC[C@@H](C(=O)NCC(N)=O)NC1=O [Example 94] ({CH2CO}-[Ala(morpholin-4-yl)][Bip][Bip][Sar][Pro(cis-4-Ph)]DRVPVYLCG-NH2; thioether N-13) | 50 to 200
CC(=O)Nc1ccc(-c2ccc(C[C@@H]3NC(=O)[C@H](Cc4ccc(-c5ccccc5)cc4)NC(=O)[C@H](CN4CCOCC4)NC(=O)CSC[C@@H](C(=O)NCC(N)=O)NC(=O)[C@H](CC(C)C)NC(=O)[C@H](Cc4ccc(O)cc4)NC(=O)[C@H](C(C)C)NC(=O)[C@@H]4CCCN4C(=O)[C@H](C(C)C)NC(=O)[C@@H](CCCNC(=N)N)NC(=O)[C@H](CC(=O)O)NC(=O)[C@@H]4CCCCN4C(=O)CN(C)C3=O)cc2)cc1 [Example 182] ({CH2CO}-[Ala(morpholin-4-yl)][Bip][Bip(4'-NHAc)][Sar][Pip]D[dR]VPVYLCG-NH2; thioether N-13) | 50 to 200
CC(=O)Nc1ccc(-c2ccc(C[C@@H]3NC(=O)[C@H](Cc4ccc(-c5ccc(C(=O)O)cc5)cc4)NC(=O)[C@H](CC4CCCCC4)NC(=O)CSC[C@@H](C(=O)NCC(N)=O)NC(=O)[C@H](CC(C)C)NC(=O)[C@H](Cc4ccccc4C)NC(=O)[C@H](C(C)C)NC(=O)[C@@H]4CCCN4C(=O)[C@H](C(C)C)NC(=O)[C@@H](CCCNC(=N)N)NC(=O)[C@H](CC(=O)O)NC(=O)[C@@H]4CCCN4C(=O)CN(C)C3=O)cc2)cc1 [Example 255] ({CH2CO}-[Cha][Bip(4'-COOH)][Bip(4'-NHAc)][Sar]PD[dR]VPV[Phe(2-Me)]LCG-NH2; thioether N-13) | 50 to 200
CC(=O)Nc1ccc(-c2ccc(C[C@@H]3NC(=O)[C@H](Cc4ccc(-c5ccccc5)cc4)NC(=O)[C@H](CN4CCOCC4)NC(=O)CSC[C@@H](C(=O)NCC(N)=O)NC(=O)[C@H](CC(C)C)NC(=O)[C@H](Cc4ccccc4)NC(=O)[C@H](C(C)C)NC(=O)[C@@H]4CCN4C(=O)[C@H](C(C)C)NC(=O)[C@@H](CCCNC(=N)N)NC(=O)[C@H](CC(=O)O)NC(=O)[C@H](Cc4ccccc4)NC(=O)CN(C)C3=O)cc2)cc1 [Example 217] ({CH2CO}-[Ala(morpholin-4-yl)][Bip][Bip(4'-NHAc)][Sar]FD[dR]V[Aze]VFLCG-NH2; thioether N-13) | 50 to 200
CC(=O)Nc1ccc(-c2ccc(C[C@@H]3NC(=O)[C@H](Cc4ccc(-c5ccccc5)cc4)NC(=O)[C@H](CN4CCOCC4)NC(=O)CSC[C@@H](C(=O)NCC(N)=O)NC(=O)[C@H](CC(C)C)NC(=O)[C@H](Cc4ccccn4)NC(=O)[C@H](C(C)C)NC(=O)[C@@H]4CCCN4C(=O)[C@H](C(C)C)NC(=O)[C@@H](CCCNC(=N)N)NC(=O)[C@H](CC(=O)O)NC(=O)[C@H](Cc4ccccn4)NC(=O)CN(C)C3=O)cc2)cc1 [Example 172] ({CH2CO}-[Ala(morpholin-4-yl)][Bip][Bip(4'-NHAc)][Sar][2Pal]D[dR]VPV[2Pal]LCG-NH2; thioether N-13) | < 50
CC[C@H](C)C1NC(=O)[C@@H]2CCCN2C(=O)[C@H]([C@@H](C)CC)NC(=O)[C@@H](CCCNC(=N)N)NC(=O)[C@H](CC(=O)O)NC(=O)[C@H](Cc2ccccn2)NC(=O)CN(C)C(=O)[C@H](Cc2ccc(-c3ccc(NC(C)=O)cc3)cc2)NC(=O)[C@H](Cc2ccc(-c3ccccc3)cc2)NC(=O)[C@H](CC2CCCCC2)NC(=O)CSC[C@@H](C(=O)NCC(N)=O)NC(=O)[C@H](CC(C)C)NC(=O)[C@H](CCCNC(=N)N)NC1=O (stereo partly shown) [Example 290] ({CH2CO}-[Cha][Bip][Bip(4'-NHAc)][Sar][2Pal]D[dR]IP[ξIle]RLCG-NH2; thioether N-13) | 50 to 200
